Measured values as given in patent publication US7662851B2, “Use of specific cyklolignans” (Axelar AB, priority 2001, dated 2010).
pIC50: −log10 of the molar value. Like-named read-outs stand apart in the source and are kept apart here.

Tests used:
IGF-1R = IGF-1R (Homo sapiens, UniProt P08069); test: Tyrosine phosphorylation of IGF-1R in intact FM55 melanoma cells; type: cell-based; set-up: endogenous in cells; settings: for Level of IGF-1R phosphorylation in intact cells: FM55 melanoma cells, 1 h, means of 3 experiments
IGF-1R, sequence (P08069 31-1367): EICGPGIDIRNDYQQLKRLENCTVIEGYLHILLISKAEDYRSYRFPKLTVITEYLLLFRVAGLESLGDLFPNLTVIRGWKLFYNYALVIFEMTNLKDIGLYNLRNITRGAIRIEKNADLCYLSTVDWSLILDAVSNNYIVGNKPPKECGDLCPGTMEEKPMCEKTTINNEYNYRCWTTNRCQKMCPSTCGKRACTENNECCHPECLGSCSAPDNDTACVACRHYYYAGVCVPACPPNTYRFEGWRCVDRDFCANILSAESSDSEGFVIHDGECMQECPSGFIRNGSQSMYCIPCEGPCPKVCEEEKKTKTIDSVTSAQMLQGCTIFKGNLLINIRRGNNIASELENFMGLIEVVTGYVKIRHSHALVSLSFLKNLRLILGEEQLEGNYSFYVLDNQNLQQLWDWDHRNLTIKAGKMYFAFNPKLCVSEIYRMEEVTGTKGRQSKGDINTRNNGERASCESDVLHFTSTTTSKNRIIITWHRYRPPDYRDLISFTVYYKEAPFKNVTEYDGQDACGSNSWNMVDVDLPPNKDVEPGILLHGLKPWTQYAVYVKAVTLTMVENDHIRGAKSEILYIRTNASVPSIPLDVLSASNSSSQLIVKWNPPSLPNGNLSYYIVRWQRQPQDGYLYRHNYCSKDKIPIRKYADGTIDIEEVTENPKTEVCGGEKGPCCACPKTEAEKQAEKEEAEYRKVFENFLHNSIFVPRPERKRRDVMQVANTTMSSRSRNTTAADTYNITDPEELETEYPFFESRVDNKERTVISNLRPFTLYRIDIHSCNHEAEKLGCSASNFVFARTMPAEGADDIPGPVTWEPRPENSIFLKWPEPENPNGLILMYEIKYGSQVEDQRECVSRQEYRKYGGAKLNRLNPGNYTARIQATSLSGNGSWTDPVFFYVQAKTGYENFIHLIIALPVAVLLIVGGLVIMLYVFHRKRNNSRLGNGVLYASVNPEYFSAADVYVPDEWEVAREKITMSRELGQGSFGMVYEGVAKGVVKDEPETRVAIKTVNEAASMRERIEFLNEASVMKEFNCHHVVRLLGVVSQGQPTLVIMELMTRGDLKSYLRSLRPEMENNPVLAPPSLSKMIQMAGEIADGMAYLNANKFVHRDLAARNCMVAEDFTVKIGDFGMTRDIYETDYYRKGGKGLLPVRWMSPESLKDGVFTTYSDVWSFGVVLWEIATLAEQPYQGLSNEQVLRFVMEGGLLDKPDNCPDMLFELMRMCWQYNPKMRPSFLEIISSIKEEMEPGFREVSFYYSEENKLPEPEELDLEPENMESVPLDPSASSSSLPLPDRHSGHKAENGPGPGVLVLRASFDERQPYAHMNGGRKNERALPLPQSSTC
Experimental: Cells were cultured to subconfluency in 6-cm plates, and then fresh medium containing 10% FBS and the desired compounds were added for 1 h. The cells were then lyzed and subjected to immunoprecipitation using specific antibodies. Immunoprecipitates were resolved by sodium dodecyl sulphate polyacrylamide gel electrophoresis (SDS-PAGE) and transferred to nitro-cellulose membranes and incubated with anti-phosphotyrosine antibody. Antibodies to actin (in cell extract) or IGF-1R beta subunit were used as loading controls. After detection the films were scanned for quantification.
The isolated cells were then lyzed in 10 ml ice-cold PBSTDS containing protease inhibitors (Carlberg, M., et al., J Biol Chem 271:17453-17462, 1996). 50 μl protein A or G agarose was added in 1 ml sample and incubated for 15 min at 4° C. on an orbital shaker. After centrifugation for 10 min at 10,000 r/min at 4° C. the supernatant was saved. The protein content was determined by a dye-binding assay with a reagent purchased from Bio-Rad. Bovine serum albumin was used as a standard. 15 μl Protein G Plus agarose and 5 μl anti-IGF-1R were added. After a 3 h incubation at 4° C. on an orbital shaker the precipitate was collected by pulse centrifugation in a micro centrifuge at 14,000×g for 10 s. The supernatant was discarded and the pellet was washed 3 times with PBSTDS.
Protein samples were solved in a 2×-sample buffer containing Laemmli buffer and 0.5% […] and boiled for 5 min at 96° C. Samples were separated by SDS-PAGE with a 4% stacking gel and 7.5% separation gel. Molecular weight markers (Bio Rad, Sweden) were run simultaneously in all experiments.
Following SDS-PAGE the proteins were transferred overnight to nitro-cellulose membranes (Hybond, Amersham, UK) and then blocked for 1 h at room temperature in a solution of 4% skimmed milk powder and 0.02% Tween 20 in PBS, pH 7.5. Incubations with the primary antibodies were performed for 1 h at room temperature, followed by 3 washes with PBS with Tween and incubation with the second antibody for 1 h room temperature. After another 3 washes the membranes were incubated with Streptavidin-labelled horseradish peroxidase for 30 min and then detected using Amersham ECL system (Amersham, UK). The films were scanned by Fluor-S (BioRad).
FM55 melanoma cells were seeded in 6-cm dishes, at a concentration of 10,000 cells/cm^2 in Minimal Essential Medium supplemented with 10% fetal calf serum (FCS). When the cells reached a density of 65,000 cells/cm^2 in the dishes, they were treated for 1 h with 0.05 μM podophyllotoxin, deoxypodophyllotoxin, picropodophyllin, deoxypicropodophyllin, 4′-demethyl-7-(4,6-O-ethylidene-β-D-glucopyranosyl)epipodophyllotoxin (etoposide) and podophyllotoxin-4,6-O-benzylidene-β-D-glucopyranoside (pf-4,6-O). Etoposide and pf-4,6-O were also administered at 15 μM. The cells were then harvested for assay and quantification of IGF-1R phosphorylation as described in Experiment 1. The values shown in Table 1 represent means of 3 experiments.
FM55 melanoma cells were cultured in the same way as described in Experiment 1. When reaching a density of 65,000 cells/cm^2 in the dishes, they were treated for 1 h with 0 (control) and 0.05 μM of picropodophyllin and podophyllotoxin, respectively. The cells were then isolated and subjected to immunoprecipitation of the IGF-1R, fibroblast growth factor receptor (FGFR), platelet-derived growth factor receptor (PDGFR), epidermal growth factor receptor (EGFR), insulin receptor (IR) and insulin substrate-1 (IRS-1) using antibodies to respective molecules. IRS-1 is a substrate of IGF-1R, and therefore its phosphorylation is dependent on phosphorylated IGF-1R. Gelelectrophoresis, Western blotting and quantification of the different signals were performed as described above.

[1] = system: HL60/0 acute myeloid leukemia cells; test: Leukemia cell viability, HL60/0; type: cell-based, human
Experimental: (§1) The human chronic myeloid leukemia K562/S and K562/Vcr30 lines and the acute myeloid leukemia cell lines HL60/0 and HL60/Nov were obtained from ATCC. The K562/S and […] are wild type (non-resistant) cells, whereas K562/Vcr30 and HL60/Nov are cytostatic-resistant sublines. All leukemia cell lines were cultured in RPMI 1640 medium supplemented with 10% fetal bovine serum and with 2 mM L-glutamine, benzylpenicillin (100 U/ml) and streptomycin (100 μg/ml). The cells were grown in tissue culture flasks maintained at 95% air/5% CO2 atmosphere at 37° C. in a humidified incubator. For the experiments cells were cultured in 60-mm plastic dishes or 96-well plastic plates.
(§2) Cell proliferation kit II (Roche Inc.) is based on colorimetric change of the yellow tetrazolium salt XTT in orange formazan dye by the respiratory chain of viable cells (Roehm, N W, et al., J Immunol Methods 142:257-265, 1991). Cells seeded at a concentration of 5000/well in 100 μl medium in a 96-well plate were treated with different drugs in the given concentration. After 24 or 48 h the cells were incubated, according to the manufacturer's protocol, with XTT labelling mixture. After 4 h the formazan dye is quantified using a scanning multiwell spectrophotometer with a 495-nm filter. The absorbance is directly correlated with the number of viable cells. The standard absorbance curve was drawn by means of untreated cells seeded at a concentration of from 1000 to 10 000 cells/well with an increasing rate of 1000 cells/well. All standards and experiments were performed in triplicates.
(§3) Cells of said cell lines were seeded in 96-well plates (25 000 cells/well, medium volume per well was 100 μl), in […] medium supplemented with fetal calf serum. After 24 h picropodophyllin and the derivatives alpha-apopicropodophyllin and beta-apopicropodo-phyllin were added at different concentrations and the cells were incubated for 72 h. Cell viability was then assayed (see above). […] The results are based on 3 different experiments.
(§4) The leukemia cell lines K562/S, […], HL60/0 and HL60/Nov were cultured in 96-well plates as described in Experiment 7. After 24 h, the cells were treated for 72 h with different concentrations of the anti-cancer agent vincristine, with and without co-incubation with 0.05 μM picropodophyllin. […] Cell viability was then assayed. IC50 values for each inhibitor and cell line are shown below (Table 8). The results are based on 3 different experiments.

[2] = system: HL60/Nov acute myeloid leukemia cells; test: Leukemia cell viability, HL60/Nov; type: cell-based, human
Experimental: as §1, §2, §3, §4

[3] = system: K562/S chronic myeloid leukemia cells; test: Leukemia cell viability, K562/S; type: cell-based, human; settings: 72 h
Experimental: as §1, §2, §3, §4

[4] = system: K562/Vcr30 chronic myeloid leukemia cells; test: Leukemia cell viability, K562/Vcr30; type: cell-based, human; settings: K562/Vcr30, 72 h
Experimental: as §1, §2, §3, §4

[5] = Local toxicity, subcutaneous osmotic pumps in nude mice; type: in vivo; settings: subcutaneous osmotic pump loaded with 0.25 mg, 7 days
Experimental: Control mice were treated with the solvent. 3-6 animals were treated in each group.
The first set of experiments was carried out to investigate possible local and systemic toxic effects of podophyllotoxin, deoxypodophyllotoxin and picropodophyllin on nude mice. In the first experiment osmotic pumps loaded with either drug-free solvent, podophyllotoxin (0.25 mg), deoxypodophyllotoxin (0.25 mg) or picropodophyllin (0.25 mg) were implanted subcutaneously in the flank region. The drugs are delivered subcutaneously with a constant flow of 0.6 μl/h over 7 days. The volume of the pumps was 100 μl. After 7 days the mice were killed and the skin and subcutaneous tissue adjacent to the outlet of the pumps were analyzed and scored for tissue reactions by an experienced pathologist. There were 3 mice in each group.

[6] = Systemic toxicity, daily intraperitoneal injection in nude mice; settings: for Signs of disease: up to 5 days
Experimental: Four to five-week old pathogen-free nude mice (nu/nu) were used and housed within plastic isolators in a sterile facility. […] Experimental treatments with podophyllotoxin, deoxypodophyllotoxin or picropodophyllin were performed by daily intraperitoneal injections of the compound in 100 μl volume of solvent, composed of a mixture of DMSO and physiological saline (8:2). Control mice were treated with the solvent. 3-6 animals were treated in each group. Animals were monitored three times a week for signs of disease and tumor growth. Tumor mass was estimated using the formula (d^2×D)/2, where d and D represent the small and large diameters of the tumor, respectively. The mice were carefully observed for presence of side effects and were sacrificed at the end of the experiments for histological analysis of the lesions. All experiments were performed according to the ethical guidelines for laboratory animal use, provided by institutional ethical committee.
In the next experiment we analyzed systemic effects of the drugs by injecting 100 μl intraperitoneally of each compound daily over 5 days. Two doses were injected (7 or 28 mg/kg/d) and 3-6 mice were used for each drug and dose. The mice were checked carefully daily for signs of discomfort, diseases and weight loss.

[7] = HL60, 72 h, read-out: IC50 for cell viability
[8] = 72 h, read-out: IC50 for cell viability
[9] = read-out: IC50 for cell viability
[10] = Homo sapiens, read-out: IC50 for cell viability, vincristine alone

## COc1cc([C@@H]2c3cc4c(cc3[C@@H](O[C@@H]3O[C@@H]5CO[C@@H](C)O[C@H]5[C@H](O)[C@H]3O)[C@H]3COC(=O)[C@H]23)OCO4)cc(OC)c1O [Etoposide, 4′-demethyl-7-(4,6-O-ethylidene-β-D-glucopyranosyl)epipodophyllotoxin]
IGF-1R; 0.05 μM
  Level of IGF-1R phosphorylation in intact cells: 102 % OD
IGF-1R; 15 μM
  Level of IGF-1R phosphorylation in intact cells: 105 % OD

## COc1cc(C2c3cc4c(cc3C(OC3OC5COC(c6ccccc6)OC5C(O)C3O)C3COC(=O)C23)OCO4)cc(OC)c1OC [Pf-4,6-O, podophyllotoxin-4,6-O-benzylidene-β-D-glucopyranoside]
IGF-1R; 0.05 μM
  Level of IGF-1R phosphorylation in intact cells: 100 % OD
IGF-1R; 15 μM
  Level of IGF-1R phosphorylation in intact cells: 102 % OD
IGF-1R; stated in description
  Effect on IGF-1R: completely disappeared

## β-apopicropodophyllin [Beta-apopicro]
[1]; [7]
  pIC50: 8.00
[2]; [8]
  pIC50: 8.00
[3]; [9]
  pIC50: 8.00
[4]; [9]
  pIC50: 8.00

## COc1cc([C@@H]2c3cc4c(cc3C=C3COC(=O)[C@H]32)OCO4)cc(OC)c1OC [Alpha-apopicro, α-apopicropodophyllin]
[1]; [7]
  pIC50: 7.70
[2]; [8]
  pIC50: 7.70
[3]; [9]
  pIC50: 7.40
[4]; [9]
  pIC50: 7.30

## COc1cc([C@@H]2c3cc4c(cc3C[C@H]3COC(=O)[C@@H]32)OCO4)cc(OC)c1OC [Deoxypodophyllotoxin, deoxypodophyllotoxin]
IGF-1R; 0.05 μM
  Level of IGF-1R phosphorylation in intact cells: 2 % OD
[5]
  Local tissue reactions: light damages
[6]; 7 mg/kg/d i.p., 1 d
  Surviving mice/Investigated mice: 3/3
[6]; 7 mg/kg/d i.p., 2 d
  Surviving mice/Investigated mice: 3/3
[6]; 7 mg/kg/d i.p., 3 d
  Surviving mice/Investigated mice: 3/3
[6]; 7 mg/kg/d i.p., 4 d
  Surviving mice/Investigated mice: 3/3
[6]; 7 mg/kg/d i.p., 5 d
  Surviving mice/Investigated mice: 3/3
[6]; 28 mg/kg/d i.p., 1 d
  Surviving mice/Investigated mice: 6/6
[6]; 28 mg/kg/d i.p., 2 d
  Surviving mice/Investigated mice: 4/6
[6]; 28 mg/kg/d i.p., 3 d
  Surviving mice/Investigated mice: 0/6
[6]; high dose (28 mg/kg/d) i.p. daily
  Signs of disease: serious disease or death
[6]; low dose (7 mg/kg/d) i.p. daily
  Signs of disease: serious signs of disease

## CC[C@]1(O)C[C@H]2CN(CCc3c([nH]c4ccccc34)[C@@](C(=O)OC)(c3cc4c(cc3OC)N(C=O)[C@H]3[C@@](O)(C(=O)OC)[C@H](OC(C)=O)[C@]5(CC)C=CCN6CC[C@]43[C@@H]65)C2)C1 [Vincristine, vincristine, reference compound]
[1]; Homo sapiens, HL-60, HL60/0, 72 h, read-out: IC50 for cell viability, vincristine alone
  pIC50: 9.10
[2]; Homo sapiens, HL-60, 72 h, read-out: IC50 for cell viability, vincristine alone
  pIC50: 8.92
[3]; [10]
  pIC50: 8.80
[4]; [10]
  pIC50: 8.30

## COc1cc([C@@H]2c3cc4c(cc3C[C@H]3COC(=O)[C@H]32)OCO4)cc(OC)c1OC [Deoxypicropodophyllin, deoxypicropodophyllin]
IGF-1R; 0.05 μM
  Level of IGF-1R phosphorylation in intact cells: 5 % OD
